{"source": "patent US20210338678A1", "about": "“BIOACTIVE VITAMIN COMBINATIONS” (BioVit, Inc., priority 2020, published 2021)", "origin": "cited, not measured here", "key": {"[1]": {"settings": "patients with type 2 diabetes, 16 weeks of treatment"}, "[2]": {"test_system": "CD8+T lymphocytes and natural killer (NK) cell activity", "settings": "vitamin B12-deficient patients"}, "[3]": {"test_system": "H1N1 influenza vaccine response", "settings": "mothers supplemented during pregnancy and postpartum"}, "[4]": {"test_system": "acute and chronic pain and inflammation", "settings": "mice"}}}
{"compound": "CN(C)C(=N)N=C(N)N", "note": "[metformin, Metformin]", "values": [{"measurement": "homocysteine", "setting": "[1]", "result": "modest increase in homocysteine"}, {"measurement": "levels of folate and vitamin B12", "setting": "[1]", "result": "reduces levels of folate and vitamin B12"}]}
{"compound": "C/C1=C2/[N-][C@H]([C@H](CC(N)=O)[C@@]2(C)CCC(=O)NC[C@@H](C)OP(=O)([O-])O[C@H]2[C@@H](O)[C@@H](n3cnc4cc(C)c(C)cc43)O[C@@H]2CO)[C@]2(C)N=C(/C(C)=C3N=C(/C=C4N=C1[C@@H](CCC(N)=O)C\\4(C)C)[C@@H](CCC(N)=O)[C@]\\3(C)CC(N)=O)[C@@H](CCC(N)=O)[C@]2(C)CC(N)=O.[CH3-].[Co+3]", "note": "[methylcobalamin, Methylcobalamin]", "values": [{"measurement": "antibody response of the immune system", "setting": "[2]", "result": "improves the antibody response of the immune system"}]}
{"compound": "Vitamin B12", "values": [{"measurement": "H1N1 influenza vaccine response", "setting": "[3]", "result": "improved H1N1 influenza vaccine response in mothers"}]}
{"compound": "cyanocobalamin", "values": [{"measurement": "control of acute and chronic neuropathic pain", "setting": "[4]", "result": "controlling acute and chronic neuropathic pain"}]}
